These results are taken from US6534048B1, “Topical clonidine preparation” (Curatek Pharmaceuticals Holding, Inc., priority 1999, dated 2003).

Data set [1] relates to patients with postherpetic neuralgia. As to conditions: cited from earlier work.

`Clc1cccc(Cl)c1NC1=NCCN1` [clonidine, N-(2,6-dichlorophenyl)-4,5-dihydro-1H-imidazol-2-amine]: the side effects result in data set [1] (single oral 0.2 mg, at the time of peak clonidine levels) is “troublesome levels of sedation and dizziness”; the side effects result (eight volunteers, 3 mg or 6 mg per day for 14 consecutive days) was “no side effects were observed”. Also, in data set [1] (single oral doses of 0.2 mg, 40 patients), the pain relief result is recorded as “greater than that produced by doses of placebo or 120 mg codeine”. Where the note is “topical daily doses of 3 mg and 6 mg clonidine”, the mean plasma concentrations result is recorded as “not more than 0.2 nanograms/ml”.
